Assay results published in paper PMC11173382, “In Vitro Investigations into the Potential Drug Interactions of Pseudoginsenoside DQ Mediated by Cytochrome P450 and Human Drug Transporters” (Molecules, 2024).

Molecular target: T1, hBCRP (Homo sapiens, UniProt Q9UNQ0)
T1 construct: purchased GenoMembrane DNAIG03; host or cells: Sf9 insect cell membrane vesicles
T1 sequence (Q9UNQ0 1-655): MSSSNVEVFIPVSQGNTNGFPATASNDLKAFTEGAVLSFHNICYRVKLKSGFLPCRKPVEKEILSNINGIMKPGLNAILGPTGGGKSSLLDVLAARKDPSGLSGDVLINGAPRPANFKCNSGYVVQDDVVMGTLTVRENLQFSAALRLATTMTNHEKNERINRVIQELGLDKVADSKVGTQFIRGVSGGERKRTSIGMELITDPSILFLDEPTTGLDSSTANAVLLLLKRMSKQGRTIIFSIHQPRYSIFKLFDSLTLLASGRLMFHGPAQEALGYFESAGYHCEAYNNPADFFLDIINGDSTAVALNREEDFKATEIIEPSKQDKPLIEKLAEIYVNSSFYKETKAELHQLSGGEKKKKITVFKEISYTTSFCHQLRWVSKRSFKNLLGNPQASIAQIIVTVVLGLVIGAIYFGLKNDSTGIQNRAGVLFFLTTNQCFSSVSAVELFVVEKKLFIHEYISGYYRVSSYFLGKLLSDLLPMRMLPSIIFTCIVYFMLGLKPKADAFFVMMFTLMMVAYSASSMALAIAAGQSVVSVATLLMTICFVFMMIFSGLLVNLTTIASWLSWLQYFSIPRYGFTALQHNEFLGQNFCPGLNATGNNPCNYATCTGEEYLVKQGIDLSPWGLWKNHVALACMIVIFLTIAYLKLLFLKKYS
Experiment: Vesicular transport assay with sf9-BCRP vesicles (3H-ES)
Assay type: in vitro ADME
Conditions: for Transport activity of BCRP (main text: percentage inhibition): negative control = 100%
Excerpt: Drug transporters mediate the cellular uptake and efflux of their substrates. Therefore, cell lines overexpressing a drug transporter can be utilized to investigate inhibitors of the transporter by assessing changes in substrate uptake. For each drug transporter, we selected a well-characterized inhibitor as the positive control. Radiolabeled substrates were used to indicate the decrease in transport efficiency when the drug transporters were inhibited by PDQ or the control inhibitors.
The concentrations of the control drugs and the substrates were stated in the assay details. Working solutions of the control inhibitors, the radiolabeled substrates, and each dose of PDQ were prepared at 200 times (200×) more concentrated solutions with DMSO for further dilution.
Transporter-overexpressed cell lines. Human organic anion transporter-overexpressed cell lines MDCKII-OAT1 and S2-OAT3, human organic anion transport polypeptide-overexpressed cell lines HEK293A-OATP1B1 and HEK293A-OATP1B3, human organic cation transporter 2-overexpressed cell line S2-OCT2, and human multi-drug resistance protein MDR1 (or P-gp)-overexpressed cell line MDCKII-MDR1 were gifts from Japan Fuji Biomedical Co., Ltd. (Fuji, Shizuoka Prefecture, Japan). Breast cancer resistance protein-overexpressed vesicles (sf9-BCRP vesicle) were purchased from GenoMembrane Co., Ltd. (Yokohama, Kanagawa, Japan).
Vesicular transport assay with the sf9-BCRP model. Vesicular transport assay was conducted to measure the interaction between PDQ and the efflux transporter BCRP, using sf9-BCRP vesicles (Cat. No, DNAIG03, GenoMembrane, Yokohama, Kanagawa, Japan). The modulation of ^3H-ES transport reflects the level of the drug-transporter interaction.
The MgATP working solution was prepared by diluting the 200 mM stock solution with the transport buffer, while the reduced glutathione solution was made by dissolving glutathione (0.615 g) in 8 mL deionized water and adjusting the pH to 6.8 with 2M NaOH. The drug solution in the reaction mix was replaced with […] of transport buffer as the negative control mix. These reaction mixes were pre-incubated at 37 °C before use. All reagents were thawed on ice, and deionized water was used for the preparation.
The membrane suspension was gently mixed with ice-cold transport buffer and aliquoted to 1.5 mL centrifuge tubes on ice. Each tube contained […] of vesicles ([…] BCRP) and […] of transport buffer. The vesicle-containing tubes were pre-incubated at 37 °C for 5 min. Then, the reaction mixes were added to the tubes to initiate the assay. To terminate the reaction after 5 min, […] of washing buffer (40 mM MOPS-Tris and 70 mM KCl) was added to each tube on ice. The samples were then transferred to the filter and filtered. The filters were washed with 5 mL of cold washing buffer three times. Subsequently, the filters were placed at the bottom of the counting vials, and the scintillation cocktail was added. The filter and the cocktail were vigorously vortexed to mix. The remaining radiation in the samples was then measured with the scintillation counter. Each sample was replicated three times (N = 3).
In = [100 × (U − U0)/(Uc − U0)]%(3)
The results were expressed as mean ± standard deviation (SD) and analyzed with GraphPad Prism 8.0 software (CA, USA). The IC50 of PDQ was curve-fitted with the FORECAST function. Statistical significance was calculated using a two-tailed test, and a p value < 0.05 was considered as significant.

`CC(C)(O)[C@@H]1CC[C@@](C)([C@H]2CC[C@]3(C)[C@@H]2[C@H](O)C[C@@H]2[C@@]4(C)CC[C@H](O)C(C)(C)[C@@H]4CC[C@]23C)O1` [PDQ, (20S,24S)-dammar-20,24-epoxy-3β, 12β, 25-triol] was tested, and the “DPM (3H-ES transport by BCRP)” value (inhibitor 0.1 μM) was 5303.7±176.6 DPM, the “Transport activity of BCRP (main text: percentage inhibition)” value (inhibitor 0.1 μM) was 96.1±3.2% and the “DPM (3H-ES transport by BCRP)” value (inhibitor 0.3 μM) was 2995.3±288.8 DPM. The “Transport activity of BCRP (main text: percentage inhibition)” value (inhibitor 0.3 μM) was 54.3±5.2%, the “DPM (3H-ES transport by BCRP)” value (inhibitor 1 μM) was 2788.3±479.5 DPM and the “Transport activity of BCRP (main text: percentage inhibition)” value (inhibitor 1 μM) was 50.5±8.7%. The “DPM (3H-ES transport by BCRP)” value (inhibitor 3 μM) was 2352.7±355.1 DPM, the “Transport activity of BCRP (main text: percentage inhibition)” value (inhibitor 3 μM) was 42.7±6.4% and the “DPM (3H-ES transport by BCRP)” value (inhibitor 10 μM) was 1997.3±185.1 DPM. For the same molecule, the “Transport activity of BCRP (main text: percentage inhibition)” value (inhibitor 10 μM) was 36.2±3.4%, the “DPM (3H-ES transport by BCRP)” value (inhibitor 30 μM) was 1911.0±179.5 DPM and the IC50 (sf9-BCRP vesicles, 3H-ES 1 µM, 5 min) was 1.08 µM.
